{"source": "PubChem BioAssay (NCI)", "assay_in_all_cases": "NCI-60 cell line screen, 48 h", "key": {"[1]": {"system": "BT-549 breast"}, "[2]": {"system": "HOP-92 NSCLC"}, "[3]": {"system": "MOLT-4 leukemia"}, "[4]": {"system": "HOP-62 NSCLC"}, "[5]": {"system": "UO-31 renal"}, "[6]": {"system": "EKVX NSCLC"}, "[7]": {"system": "HCT-116 colon"}, "[8]": {"system": "SF-268 CNS"}, "[9]": {"system": "KM12 colon"}, "[10]": {"system": "MALME-3M melanoma"}}, "note": "Values joined by “and” are separate entries in the source; they are usually repeats but may differ in a detail not shown here. Equal entries are not always repeated.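 All cell lines were grown in 96-well plates and treated with compound for 48 hours. Here, GI50 denotes the concentration required for 50% inhibition of growth. Definition used: TGI = concentration required for complete inhibition of growth.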"}
{"smiles": "COC(C(=O)C(O)C(C)O)C1Cc2cc3cc(OC4CC(OC(C)=O)C(OC5CC(O)C(OC)C(C)O5)C(C)O4)cc(O)c3c(O)c2C(=O)C1OC1CC(OC2CC(OC3CC(C)(O)C(OC(=O)C(C)C)C(C)O3)C(O)C(C)O2)C(O)C(C)O1", "note": "(stereo unspecified)", "values": [{"measurement": "TGI", "setting": "[1]", "result": 0.0444, "unit": "µM"}, {"measurement": "GI50", "setting": "[2]", "result": "0.0383 µM and 0.00429 µM"}, {"measurement": "TGI", "setting": "[2]", "result": "0.288 µM and 0.039 µM"}, {"measurement": "TGI", "setting": "[3]", "result": "0.306 µM and 0.147 µM"}, {"measurement": "GI50", "setting": "[4]", "result": "79.5 nM and 10.2 nM and 8.56 nM"}, {"measurement": "GI50", "setting": "[5]", "result": "399 nM and 460 nM"}, {"measurement": "TGI", "setting": "[5]", "result": "4.1 µM and 5.22 µM"}, {"measurement": "GI50", "setting": "[6]", "result": 72.3, "unit": "nM"}]}
{"smiles": "N#Cc1c(N)nc(N2CCOCC2)c(C#N)c1-c1ccc(Cl)cc1", "values": [{"measurement": "GI50", "setting": "[1]", "result": 32, "unit": "µM"}, {"measurement": "TGI", "setting": "[1]", "result": "> 100", "unit": "µM"}, {"measurement": "GI50", "setting": "[7]", "result": 65.1, "unit": "µM"}, {"measurement": "TGI", "setting": "[7]", "result": "> 100", "unit": "µM"}, {"measurement": "GI50", "setting": "[2]", "result": 9, "unit": "µM"}, {"measurement": "TGI", "setting": "[2]", "result": 78.4, "unit": "µM"}, {"measurement": "GI50", "setting": "[3]", "result": 43.7, "unit": "µM"}, {"measurement": "TGI", "setting": "[3]", "result": "> 100", "unit": "µM"}, {"measurement": "GI50", "setting": "[4]", "result": "> 100000", "unit": "nM"}, {"measurement": "TGI", "setting": "[4]", "result": "> 100", "unit": "µM"}, {"measurement": "GI50", "setting": "[8]", "result": 61700, "unit": "nM"}, {"measurement": "TGI", "setting": "[8]", "result": "> 100", "unit": "µM"}, {"measurement": "GI50", "setting": "[6]", "result": 22500, "unit": "nM"}, {"measurement": "TGI", "setting": "[6]", "result": "> 100", "unit": "µM"}]}
{"smiles": "Cn1c(=O)c(Oc2ccc(F)cc2F)cc2cnc(NC(CO)CO)nc21", "values": [{"measurement": "GI50", "setting": "[1]", "result": "> 25", "unit": "µM"}, {"measurement": "TGI", "setting": "[1]", "result": "> 25", "unit": "µM"}, {"measurement": "GI50", "setting": "[7]", "result": "> 25", "unit": "µM"}, {"measurement": "TGI", "setting": "[7]", "result": "> 25", "unit": "µM"}, {"measurement": "GI50", "setting": "[2]", "result": 14.7, "unit": "µM"}, {"measurement": "TGI", "setting": "[2]", "result": "> 25", "unit": "µM"}, {"measurement": "GI50", "setting": "[3]", "result": "> 25", "unit": "µM"}, {"measurement": "TGI", "setting": "[3]", "result": "> 25", "unit": "µM"}, {"measurement": "GI50", "setting": "[4]", "result": "> 25000", "unit": "nM"}, {"measurement": "TGI", "setting": "[4]", "result": "> 25", "unit": "µM"}, {"measurement": "GI50", "setting": "[8]", "result": "> 25000", "unit": "nM"}, {"measurement": "TGI", "setting": "[8]", "result": "> 25", "unit": "µM"}, {"measurement": "GI50", "setting": "[9]", "result": "> 25", "unit": "µM"}, {"measurement": "TGI", "setting": "[9]", "result": "> 25", "unit": "µM"}, {"measurement": "GI50", "setting": "[5]", "result": "> 25000", "unit": "nM"}, {"measurement": "TGI", "setting": "[5]", "result": "> 25", "unit": "µM"}, {"measurement": "GI50", "setting": "[10]", "result": "> 25000", "unit": "nM"}, {"measurement": "TGI", "setting": "[10]", "result": "> 25", "unit": "µM"}]}
{"smiles": "Cc1ccc(/C=C2/SC(Nc3nc(-c4nc(NC5=NC(=O)/C(=C\\c6ccc(C)cc6)S5)sc4C)c(C)s3)=NC2=O)cc1", "values": [{"measurement": "GI50", "setting": "[1]", "result": 1.21, "unit": "µM"}, {"measurement": "TGI", "setting": "[1]", "result": 31.9, "unit": "µM"}, {"measurement": "GI50", "setting": "[7]", "result": 9.2, "unit": "µM"}, {"measurement": "TGI", "setting": "[7]", "result": 20.9, "unit": "µM"}, {"measurement": "GI50", "setting": "[2]", "result": 17.1, "unit": "µM"}, {"measurement": "TGI", "setting": "[2]", "result": "> 47.8", "unit": "µM"}, {"measurement": "GI50", "setting": "[3]", "result": "> 19.7", "unit": "µM"}, {"measurement": "TGI", "setting": "[3]", "result": "> 50", "unit": "µM"}, {"measurement": "GI50", "setting": "[4]", "result": 5, "unit": "nM"}, {"measurement": "TGI", "setting": "[4]", "result": 2.65, "unit": "µM"}, {"measurement": "GI50", "setting": "[8]", "result": 2510, "unit": "nM"}, {"measurement": "TGI", "setting": "[8]", "result": "> 50", "unit": "µM"}, {"measurement": "GI50", "setting": "[9]", "result": 0.289, "unit": "µM"}, {"measurement": "TGI", "setting": "[9]", "result": 18.6, "unit": "µM"}, {"measurement": "GI50", "setting": "[5]", "result": 6030, "unit": "nM"}, {"measurement": "TGI", "setting": "[5]", "result": "> 50", "unit": "µM"}, {"measurement": "GI50", "setting": "[6]", "result": 33.9, "unit": "nM"}, {"measurement": "TGI", "setting": "[6]", "result": 0.15, "unit": "µM"}]}
{"smiles": "O=C1/C(=C/c2ccc([N+](=O)[O-])o2)Oc2ccc(Br)cc21", "values": [{"measurement": "GI50", "setting": "[1]", "result": 1.87, "unit": "µM"}, {"measurement": "TGI", "setting": "[1]", "result": 3.5, "unit": "µM"}, {"measurement": "GI50", "setting": "[7]", "result": 1.9, "unit": "µM"}, {"measurement": "TGI", "setting": "[7]", "result": 3.46, "unit": "µM"}, {"measurement": "GI50", "setting": "[2]", "result": 1.52, "unit": "µM"}, {"measurement": "TGI", "setting": "[2]", "result": 3.1, "unit": "µM"}, {"measurement": "GI50", "setting": "[3]", "result": 3.07, "unit": "µM"}, {"measurement": "TGI", "setting": "[3]", "result": 9.4, "unit": "µM"}, {"measurement": "GI50", "setting": "[4]", "result": 15000, "unit": "nM"}, {"measurement": "TGI", "setting": "[4]", "result": 34.4, "unit": "µM"}, {"measurement": "GI50", "setting": "[8]", "result": 2040, "unit": "nM"}, {"measurement": "TGI", "setting": "[8]", "result": 4.16, "unit": "µM"}, {"measurement": "GI50", "setting": "[9]", "result": 3.85, "unit": "µM"}, {"measurement": "TGI", "setting": "[9]", "result": 13, "unit": "µM"}, {"measurement": "GI50", "setting": "[5]", "result": 1460, "unit": "nM"}, {"measurement": "TGI", "setting": "[5]", "result": 3.02, "unit": "µM"}, {"measurement": "GI50", "setting": "[10]", "result": 1920, "unit": "nM"}, {"measurement": "TGI", "setting": "[10]", "result": 4.74, "unit": "µM"}]}
{"smiles": "CCCCCCCCCCC(O)[C@H]1CCC(C2CC[C@H]([C@H](O)CCCCCCCCCCC(O)CC3=CC(C)OC3=O)O2)O1", "note": "(stereo partly specified)", "values": [{"measurement": "GI50", "setting": "[7]", "result": 2.24, "unit": "µM"}, {"measurement": "TGI", "setting": "[7]", "result": "8.87 µM and 10 µM"}, {"measurement": "TGI", "setting": "[2]", "result": "5.87 µM and 6.72 µM"}, {"measurement": "TGI", "setting": "[3]", "result": 3.69, "unit": "µM"}, {"measurement": "TGI", "setting": "[4]", "result": "4.89 µM and 5.88 µM"}, {"measurement": "GI50", "setting": "[8]", "result": 1110, "unit": "nM"}, {"measurement": "TGI", "setting": "[8]", "result": "3.67 µM and 8.61 µM"}, {"measurement": "TGI", "setting": "[9]", "result": 3.66, "unit": "µM"}, {"measurement": "TGI", "setting": "[5]", "result": "2.36 µM and 2.67 µM"}, {"measurement": "TGI", "setting": "[10]", "result": 4.32, "unit": "µM"}, {"measurement": "GI50", "setting": "[6]", "result": 2090, "unit": "nM"}]}
{"smiles": "N#Cc1cccc(C(=O)Nc2cccc(NC(=O)c3cccc(C#N)c3)c2)c1", "values": [{"measurement": "GI50", "setting": "[1]", "result": "> 100", "unit": "µM"}, {"measurement": "TGI", "setting": "[1]", "result": "> 100", "unit": "µM"}, {"measurement": "GI50", "setting": "[7]", "result": 78.1, "unit": "µM"}, {"measurement": "TGI", "setting": "[7]", "result": "> 100", "unit": "µM"}, {"measurement": "GI50", "setting": "[2]", "result": 60.4, "unit": "µM"}, {"measurement": "TGI", "setting": "[2]", "result": "> 100", "unit": "µM"}, {"measurement": "GI50", "setting": "[3]", "result": 86.5, "unit": "µM"}, {"measurement": "TGI", "setting": "[3]", "result": "> 100", "unit": "µM"}, {"measurement": "GI50", "setting": "[4]", "result": 33500, "unit": "nM"}, {"measurement": "TGI", "setting": "[4]", "result": 74, "unit": "µM"}, {"measurement": "GI50", "setting": "[8]", "result": 17000, "unit": "nM"}, {"measurement": "TGI", "setting": "[8]", "result": 56, "unit": "µM"}, {"measurement": "GI50", "setting": "[5]", "result": "> 100000", "unit": "nM"}, {"measurement": "TGI", "setting": "[5]", "result": "> 100", "unit": "µM"}, {"measurement": "GI50", "setting": "[6]", "result": "> 100000", "unit": "nM"}, {"measurement": "TGI", "setting": "[6]", "result": "> 100", "unit": "µM"}]}
{"smiles": "O=C1Nc2ccccc2C1Cc1ccc([N+](=O)[O-])cc1", "note": "(stereo unspecified)", "values": [{"measurement": "TGI", "setting": "[1]", "result": "> 100", "unit": "µM"}, {"measurement": "TGI", "setting": "[7]", "result": "> 100", "unit": "µM"}, {"measurement": "TGI", "setting": "[3]", "result": "> 100", "unit": "µM"}, {"measurement": "TGI", "setting": "[4]", "result": "> 100", "unit": "µM"}, {"measurement": "TGI", "setting": "[8]", "result": "> 100", "unit": "µM"}, {"measurement": "TGI", "setting": "[9]", "result": "> 100", "unit": "µM"}, {"measurement": "TGI", "setting": "[5]", "result": "> 100", "unit": "µM"}, {"measurement": "TGI", "setting": "[6]", "result": "> 100", "unit": "µM"}]}
